Test results as given in the CheMixHub viscosity set.

Assay: xn = mol fraction of the nth substance listed

CCC(C)=O + C1CCCCC1
Conditions	viscosity [mPa·s]
293.15 K, 101.33 kPa, x2 = 0.0479	0.401
293.15 K, 101.33 kPa, x2 = 0.0956	0.404
293.15 K, 101.33 kPa, x2 = 0.1983	0.433
293.15 K, 101.33 kPa, x2 = 0.3046	0.466
293.15 K, 101.33 kPa, x2 = 0.4002	0.488
293.15 K, 101.33 kPa, x2 = 0.5028	0.53
293.15 K, 101.33 kPa, x2 = 0.6056	0.581
293.15 K, 101.33 kPa, x2 = 0.703	0.641
293.15 K, 101.33 kPa, x2 = 0.8048	0.72
293.15 K, 101.33 kPa, x2 = 0.9029	0.824
293.15 K, 101.33 kPa, x2 = 0.9515	0.888
298 K, 101.3 kPa, x2 = 0.126	0.426
298 K, 101.3 kPa, x2 = 0.2633	0.448
298 K, 101.3 kPa, x2 = 0.4524	0.501
298 K, 101.3 kPa, x2 = 0.6037	0.554
298 K, 101.3 kPa, x2 = 0.8267	0.685
298.15 K, 101 kPa, x2 = 0.1	0.41
298.15 K, 101 kPa, x2 = 0.2	0.425
298.15 K, 101 kPa, x2 = 0.3	0.444
298.15 K, 101 kPa, x2 = 0.4	0.472
298.15 K, 101 kPa, x2 = 0.5	0.508
298.15 K, 101 kPa, x2 = 0.6	0.548
298.15 K, 101 kPa, x2 = 0.7	0.595
298.15 K, 101 kPa, x2 = 0.8	0.665
298.15 K, 101 kPa, x2 = 0.9	0.752
298.15 K, 101.33 kPa, x2 = 0.0479	0.381
298.15 K, 101.33 kPa, x2 = 0.0956	0.39
298.15 K, 101.33 kPa, x2 = 0.1983	0.41
298.15 K, 101.33 kPa, x2 = 0.3046	0.441
298.15 K, 101.33 kPa, x2 = 0.4002	0.459
298.15 K, 101.33 kPa, x2 = 0.5028	0.498
298.15 K, 101.33 kPa, x2 = 0.6056	0.543
298.15 K, 101.33 kPa, x2 = 0.703	0.597
298.15 K, 101.33 kPa, x2 = 0.8048	0.668
298.15 K, 101.33 kPa, x2 = 0.9029	0.76
298.15 K, 101.33 kPa, x2 = 0.9515	0.816
303.15 K, 101.33 kPa, x2 = 0.0479	0.363
303.15 K, 101.33 kPa, x2 = 0.0956	0.37
303.15 K, 101.33 kPa, x2 = 0.1983	0.388
303.15 K, 101.33 kPa, x2 = 0.3046	0.419
303.15 K, 101.33 kPa, x2 = 0.4002	0.433
303.15 K, 101.33 kPa, x2 = 0.5028	0.468
303.15 K, 101.33 kPa, x2 = 0.6056	0.51
303.15 K, 101.33 kPa, x2 = 0.703	0.558
303.15 K, 101.33 kPa, x2 = 0.8048	0.622
303.15 K, 101.33 kPa, x2 = 0.9029	0.705
303.15 K, 101.33 kPa, x2 = 0.9515	0.754
307.35 K, 101.33 kPa, x1 = 0.1093	0.648
307.35 K, 101.33 kPa, x1 = 0.361	0.504
307.35 K, 101.33 kPa, x1 = 0.4975	0.453
307.35 K, 101.33 kPa, x1 = 0.555	0.429
307.35 K, 101.33 kPa, x1 = 0.6809	0.413
307.35 K, 101.33 kPa, x1 = 0.8865	0.366
318 K, 101.3 kPa, x2 = 0.1257	0.349
318 K, 101.3 kPa, x2 = 0.2611	0.3682
318 K, 101.3 kPa, x2 = 0.4518	0.3996
318 K, 101.3 kPa, x2 = 0.6033	0.4343
318 K, 101.3 kPa, x2 = 0.8254	0.5157

COCCOC + CCCCCCCCO
298.15 K, 101 kPa
Conditions	viscosity [mPa·s]
x1 = 0.1384	4.222
x1 = 0.2654	2.824
x1 = 0.3825	1.922
x1 = 0.4907	1.402
x1 = 0.591	1.089
x1 = 0.6843	0.8523
x1 = 0.7713	0.6745
x1 = 0.8525	0.5661
x1 = 0.9286	0.4789

COC(C)=O + CCCCCCCCO
viscosity [mPa·s], 101 kPa
Conditions	x2 = 0.053	x2 = 0.1119	x2 = 0.1776	x2 = 0.2515	x2 = 0.3351	x2 = 0.4305	x2 = 0.5404	x2 = 0.6684	x2 = 0.8194
298.15 K	0.436	0.505	0.601	0.736	0.932	1.232	1.722	2.573	4.177
303.15 K	0.414	0.478	0.564	0.685	0.86	1.126	1.554	2.288	3.646
308.15 K	0.395	0.454	0.532	0.64	0.795	1.029	1.402	2.03	3.174
313.15 K	0.374	0.429	0.5	0.596	0.734	0.941	1.267	1.808	2.773

COC(C)=O + O=C1CCCO1
298.15 K, 101.33 kPa
Conditions	viscosity [mPa·s]
x1 = 0.0471	1.585
x1 = 0.1055	1.467
x1 = 0.1514	1.365
x1 = 0.2015	1.254
x1 = 0.2517	1.16
x1 = 0.293	1.091
x1 = 0.4005	0.902
x1 = 0.4297	0.858
x1 = 0.4981	0.746
x1 = 0.5486	0.678
x1 = 0.5907	0.632
x1 = 0.701	0.52
x1 = 0.745	0.485
x1 = 0.7921	0.446
x1 = 0.8471	0.416
x1 = 0.9005	0.378
x1 = 0.9509	0.369

COC(C)=O + CCCCO
298.15 K, 101.33 kPa
Conditions	viscosity [mPa·s]
x1 = 0.0786	1.953
x1 = 0.144	1.566
x1 = 0.2105	1.28
x1 = 0.2986	1.019
x1 = 0.4151	0.791
x1 = 0.4971	0.677
x1 = 0.5919	0.576
x1 = 0.6406	0.534
x1 = 0.7116	0.484
x1 = 0.7972	0.44
x1 = 0.9034	0.402
